Laboratory results from the NIST ThermoML archive (doi:10.1016/j.jct.2016.07.021).
Numbers after ± are expanded uncertainties.

Assay: activity coefficient (dimensionless); of the first substance listed, at infinite dilution; xn = mol fraction of the nth substance listed
Conditions: 101.33 kPa, Liquid, Chromatography, x1 = 0

Row | SMILES | activity coefficient (313.15 K) | activity coefficient (323.15 K) | activity coefficient (333.15 K) | activity coefficient (343.15 K) | activity coefficient (353.15 K)
1 | Cc1ccccc1C [1,2-dimethylbenzene] + CCCCCCn1cc[n+](C)c1C.O=S(=O)([N-]S(=O)(=O)C(F)(F)F)C(F)(F)F | 1.17 ± 0.12 | 1.19 ± 0.12 | 1.21 ± 0.12 | 1.22 ± 0.13 | 1.24 ± 0.13
2 | Cc1cccc(C)c1 [1,3-dimethylbenzene] + CCCCCCn1cc[n+](C)c1C.O=S(=O)([N-]S(=O)(=O)C(F)(F)F)C(F)(F)F | 1.34 ± 0.14 | 1.38 ± 0.14 | 1.41 ± 0.15 | 1.44 ± 0.15 | 1.47 ± 0.15
3 | Cc1ccc(C)cc1 [1,4-dimethylbenzene] + CCCCCCn1cc[n+](C)c1C.O=S(=O)([N-]S(=O)(=O)C(F)(F)F)C(F)(F)F | 1.39 ± 0.14 | 1.42 ± 0.15 | 1.46 ± 0.15 | 1.5 ± 0.16 | 1.55 ± 0.16
4 | CC(C)=O [acetone] + CCCCCCn1cc[n+](C)c1C.O=S(=O)([N-]S(=O)(=O)C(F)(F)F)C(F)(F)F | 0.4 ± 0.05 | 0.42 ± 0.05 | 0.43 ± 0.05 | 0.45 ± 0.05 | 0.46 ± 0.05
5 | CC#N [acetonitrile] + CCCCCCn1cc[n+](C)c1C.O=S(=O)([N-]S(=O)(=O)C(F)(F)F)C(F)(F)F | 0.45 ± 0.05 | 0.46 ± 0.05 | 0.47 ± 0.05 | 0.48 ± 0.05 | 0.48 ± 0.05
6 | c1ccccc1 [benzene] + CCCCCCn1cc[n+](C)c1C.O=S(=O)([N-]S(=O)(=O)C(F)(F)F)C(F)(F)F | 0.72 ± 0.08 | 0.72 ± 0.08 | 0.74 ± 0.08 | 0.75 ± 0.08 | 0.76 ± 0.08
7 | C1CCCCC1 [cyclohexane] + CCCCCCn1cc[n+](C)c1C.O=S(=O)([N-]S(=O)(=O)C(F)(F)F)C(F)(F)F | 5.33 ± 0.56 | 5.14 ± 0.54 | 4.99 ± 0.52 | 4.88 ± 0.51 | 4.74 ± 0.5
8 | C1=CCCCC1 [cyclohexene] + CCCCCCn1cc[n+](C)c1C.O=S(=O)([N-]S(=O)(=O)C(F)(F)F)C(F)(F)F | 3.36 ± 0.35 | 3.29 ± 0.35 | 3.19 ± 0.34 | 3.06 ± 0.32 | 2.93 ± 0.31
9 | CCCCCCCCCC [decane] + CCCCCCn1cc[n+](C)c1C.O=S(=O)([N-]S(=O)(=O)C(F)(F)F)C(F)(F)F | 26.8 ± 2.8 | 25 ± 2.6 | 23.3 ± 2.5 | 21.6 ± 2.3 | 20.1 ± 2.1
10 | ClCCl [dichloromethane] + CCCCCCn1cc[n+](C)c1C.O=S(=O)([N-]S(=O)(=O)C(F)(F)F)C(F)(F)F | 0.74 ± 0.08 | 0.73 ± 0.08 | 0.72 ± 0.08 | 0.71 ± 0.07 | 0.7 ± 0.07
11 | CCOC(C)=O [ethyl acetate] + CCCCCCn1cc[n+](C)c1C.O=S(=O)([N-]S(=O)(=O)C(F)(F)F)C(F)(F)F | 0.83 ± 0.09 | 0.86 ± 0.09 | 0.88 ± 0.09 | 0.91 ± 0.09 | 0.93 ± 0.09
12 | CCc1ccccc1 [ethylbenzene] + CCCCCCn1cc[n+](C)c1C.O=S(=O)([N-]S(=O)(=O)C(F)(F)F)C(F)(F)F | 1.34 ± 0.14 | 1.36 ± 0.14 | 1.38 ± 0.14 | 1.4 ± 0.14 | 1.42 ± 0.15
13 | CCCCCCC [heptane] + CCCCCCn1cc[n+](C)c1C.O=S(=O)([N-]S(=O)(=O)C(F)(F)F)C(F)(F)F | 10.2 ± 1.1 | 9.79 ± 1 | 9.47 ± 1 | 9.2 ± 0.97 | 8.83 ± 0.93
14 | CCCCCC [hexane] + CCCCCCn1cc[n+](C)c1C.O=S(=O)([N-]S(=O)(=O)C(F)(F)F)C(F)(F)F | 7.6 ± 0.8 | 7.41 ± 0.78 | 7.16 ± 0.75 | 6.96 ± 0.73 | 6.78 ± 0.71
15 | CC1CCCCC1 [methylcyclohexane] + CCCCCCn1cc[n+](C)c1C.O=S(=O)([N-]S(=O)(=O)C(F)(F)F)C(F)(F)F | 6.48 ± 0.68 | 6.26 ± 0.66 | 6.06 ± 0.64 | 5.81 ± 0.61 | 5.62 ± 0.59
16 | CCCCCCCCC [nonane] + CCCCCCn1cc[n+](C)c1C.O=S(=O)([N-]S(=O)(=O)C(F)(F)F)C(F)(F)F | 21.5 ± 2.3 | 19.8 ± 2.1 | 18.1 ± 1.9 | 16.6 ± 1.7 | 15.1 ± 1.6
17 | CCCCCCCC [octane] + CCCCCCn1cc[n+](C)c1C.O=S(=O)([N-]S(=O)(=O)C(F)(F)F)C(F)(F)F | 12.8 ± 1.4 | 11.7 ± 1.2 | 10.6 ± 1.1 | 9.82 ± 1 | 9.16 ± 0.96
18 | CCCCC [pentane] + CCCCCCn1cc[n+](C)c1C.O=S(=O)([N-]S(=O)(=O)C(F)(F)F)C(F)(F)F | 5.64 ± 0.59 | 5.55 ± 0.58 | 5.45 ± 0.57 | 5.33 ± 0.56 | 5.21 ± 0.55
19 | ClC(Cl)(Cl)Cl [tetrachloromethane] + CCCCCCn1cc[n+](C)c1C.O=S(=O)([N-]S(=O)(=O)C(F)(F)F)C(F)(F)F | 2.31 ± 0.24 | 2.26 ± 0.24 | 2.19 ± 0.23 | 2.15 ± 0.23 | 2.09 ± 0.22
20 | C1CCOC1 [tetrahydrofuran] + CCCCCCn1cc[n+](C)c1C.O=S(=O)([N-]S(=O)(=O)C(F)(F)F)C(F)(F)F | 0.5 ± 0.06 | 0.51 ± 0.06 | 0.53 ± 0.06 | 0.55 ± 0.06 | 0.58 ± 0.06
21 | Cc1ccccc1 [toluene] + CCCCCCn1cc[n+](C)c1C.O=S(=O)([N-]S(=O)(=O)C(F)(F)F)C(F)(F)F | 0.96 ± 0.1 | 0.99 ± 0.1 | 1.01 ± 0.1 | 1.03 ± 0.1 | 1.05 ± 0.11
22 | ClC(Cl)Cl [trichloromethane] + CCCCCCn1cc[n+](C)c1C.O=S(=O)([N-]S(=O)(=O)C(F)(F)F)C(F)(F)F | 0.77 ± 0.08 | 0.78 ± 0.08 | 0.79 ± 0.08 | 0.81 ± 0.08 | 0.82 ± 0.08
